Measured values published in article PMC12682947, “Identification of New KCNT1‐Epilepsy Drugs by In Silico, Cell, and Drosophila Modeling” (Annals of Neurology, 2025).
Where “and” joins values, the source holds several entries; their conditions need not be identical. Equal entries are not always repeated. Entries after “also recorded” stand apart in the source; their conditions may differ. Where two headings read alike, the source gives them in different places.

Assay: Plasma pharmacokinetics and brain uptake of antrafenine in mice (LC-MS)
Type: in vivo, male C57BL/6 mice
Conditions: for AUC(0-inf): read-out: Plasma AUC0-inf; for clearance: read-out: Plasma CL; for Vd: read-out: Plasma VSS
Procedure: Plasma pharmacokinetics and brain uptake of antrafenine was analyzed in male C57BL/6 mice. Antrafenine was administered intravenously at 1 mg/kg and 3 mg/kg into the tail vein and plasma was collected over a 24‐hour sampling period (n = 3 mice/time point). Following administration, the brain was harvested at 4 times over 24 hours and snap frozen in dry ice and subsequently stored frozen (−80°C) until analysis. The concentration of antrafenine was determined using liquid chromatography–mass spectrometry. The in vivo study was conducted using established procedures in accordance with the Australian Code of Practice for the Care and Use of Animals for Scientific Purposes, and the study protocols were reviewed and approved by the Monash Institute of Pharmaceutical Sciences Animal Ethics Committee. See Supporting Information for detailed methods and results. […]
Plasma pharmacokinetics and brain uptake of antrafenine was analyzed in male C57BL/6 mice by the Monash University Centre for Drug Candidate Optimisation. Antrafenine was administered intravenously at 1 mg/kg and 3 mg/kg into the tail vein and plasma was collected over a 24 h sampling period (n=3 mice/time point). Following administration, brain was harvested at four times over 24 hours and snap frozen in dry ice and subsequently stored frozen (-80°C) until analysis. The concentration of antrafenine was determined using liquid chromatography–mass spectrometry (LC-MS).
4 hrs post IV administration of 3 mg/kg Antrafenine was taken as a representative time to compare plasma and brain concentrations. At 4 hrs we determined a mean plasma concentration of 47.5 nM (+5.9 nM SD) and a mean brain concentration of 13.9 nM (+3 nM SD). […]
Plasma pharmacokinetics and brain uptake of antrafenine
The systemic exposure of antrafenine was studied in non-fasted male C57BL/6 mice weighing 19.8 – 24.6 g. Mice had access to food and water ad libitum throughout the pre- and post-dose period. Antrafenine hydrochloride Mw 588.554 (Lot#10-KSS-51-2) was obtained from Toronto Research Chemicals/LGC Standards, Canada, and was dissolved in vehicle; 5% (v/v) DMSO, 25% (v/v) 40% (w/v) Trappsol in 0.9% (w/v) saline, 70% (v/v) 40 mM citrate buffered saline at pH 3.5 at concentrations of 0.5 mg/mL and 1.5 mg/mL.
On the day of dosing, each formulation was prepared by dissolving solid antrafenine in DMSO using vortexing and sonication prior to addition of 40% (w/v) Trappsol in 0.9% (w/v) saline followed by 40 mM citrate-buffered saline at pH 3.5. Each sample was vortexed to create a colorless / light yellow solution and was filtered through a 0.22 µm syringe filter prior to dosing.
Administration of antrafenine was performed by a single bolus IV injection into the tail vein of C57BL/6 male mice using a 1ml syringe with a 25G x 1” needle at a volume of 2 mL/kg. Each […]
formulation was dosed to mice by bolus injection into the lateral tail vein (2 mL/kg) and blood samples were collected at 1, 2, 5, 15 and 30 min; 1, 2, 4, 7.5 and 24 h post-dose (n=3 mice per time point for each formulation). A maximum of three blood samples were obtained from each mouse, with plasma samples being taken via submandibular bleed (approximately 120 μL).
Blood was collected into polypropylene Eppendorf tubes containing heparin as anticoagulant and stabilization cocktail (Complete® (containing a protease inhibitor cocktail and EDTA) and potassium fluoride) to minimize the potential for ex vivo compound degradation in blood/plasma samples. Once collected, blood samples were centrifuged immediately, supernatant plasma was removed, snap frozen in dry ice and stored at -80°C until analysis by LC-MS. In addition, at the 15 min, 1, 4 and 24 h post-dose time points, the whole brain was rapidly removed from the carcass soon after the blood collection. The whole brains were blotted to remove excess blood, placed into pre-weighed polypropylene vials and weighed. The brains were snap frozen in dry […]

[1] = IV 1 mg/kg, 0.25 h, individual mice, 1 mg/kg
[2] = IV 1 mg/kg, 1 h, individual mice, 1 mg/kg
[3] = IV 1 mg/kg, 4 h, individual mice, 1 mg/kg
[4] = IV 3 mg/kg, 0.25 h, individual mice, 3 mg/kg
[5] = IV 3 mg/kg, 1 h, individual mice, 3 mg/kg
[6] = IV 3 mg/kg, 4 h, individual mice, 3 mg/kg
[7] = male, C57BL/6, mouse, plasma, IV administration at 1mg/kg
[8] = male, C57BL/6, mouse, plasma, IV administration at 3mg/kg

O=C(OCCN1CCN(c2cccc(C(F)(F)F)c2)CC1)c1ccccc1Nc1ccnc2cc(C(F)(F)F)ccc12 [antrafenine]
detection in brain at 24 h (24 h post-dose, either dose level (1 and 3 mg/kg IV)): not detected | B:P ratio Individual [1]: 0.027 and 0.094 and 0.028 | Plasma Concentration Individual [1]: 233 nM and 344 nM | concentration at 4 h (IV 1 mg/kg, 0.25 h, individual mice, 1 mg/kg, read-out: Brain Parenchyma Concentration Individual): 8.5 nM and 22 nM and 9.5 nM | B:P ratio Individual [2]: 0.087 and 0.046 and 0.096 | Plasma Concentration Individual [2]: 112 nM and 104 nM | concentration at 4 h (IV 1 mg/kg, 1 h, individual mice, 1 mg/kg, read-out: Brain Parenchyma Concentration Individual): 10.5 nM and 5.2 nM and 9.9 nM | B:P ratio Individual [3]: 0.46 and 0.26 and 0.17 | Plasma Concentration Individual [3]: 14 nM and 12.9 nM | concentration at 4 h (IV 1 mg/kg, 4 h, individual mice, 1 mg/kg, read-out: Brain Parenchyma Concentration Individual): 5.7 nM and 3.7 nM and 2.2 nM | Plasma Concentration Individual (IV 1 mg/kg, 24 h, individual mice, 1 mg/kg): 1.6 nM and 1.8 nM | B:P ratio Individual [4]: 0.038 and 0.048 | Plasma Concentration Individual [4]: 705 nM and 648 nM | concentration at 4 h (IV 3 mg/kg, 0.25 h, individual mice, 3 mg/kg, read-out: Brain Parenchyma Concentration Individual): 26.6 nM and 30.9 nM | B:P ratio Individual [5]: 0.087 and 0.10 | Plasma Concentration Individual [5]: 208 nM and 349 nM | concentration at 4 h (IV 3 mg/kg, 1 h, individual mice, 3 mg/kg, read-out: Brain Parenchyma Concentration Individual): 40.2 nM and 18.2 nM and 35.8 nM | B:P ratio Individual [6]: 0.30 and 0.25 | Plasma Concentration Individual [6]: 41.9 nM and 47.1 nM | concentration at 4 h (IV 3 mg/kg, 4 h, individual mice, 3 mg/kg, read-out: Brain Parenchyma Concentration Individual): 12.7 nM and 11.7 nM | Plasma Concentration Individual (IV 3 mg/kg, 24 h, individual mice, 3 mg/kg): 8.8 nM and 5.1 nM | adverse reactions / toxic effects in mice (IV at 1 and 3 mg/kg): No adverse reactions or compound-related side effects were observed; also recorded: No toxic effects | apparent plasma clearance (in words) (IV at 1 and 3 mg/kg): low | volume of distribution (in words) (IV at 1 and 3 mg/kg): high | concentration at 4 h (male, C57BL/6, mouse, brain parenchyma, iv, 3 mg/kg, IV 3 mg/kg, 4 h, individual mice, read-out: Brain Parenchyma Concentration Individual): 17.3 nM | concentration at 4 h (male, C57BL/6, mouse, brain parenchyma, iv, 3 mg/kg, IV 3 mg/kg, 4 h, n = 3, read-out: Brain Parenchyma Concentration Mean ± SD): 13.9 nM | Kp at 0.25 h (male, C57BL/6, mouse, brain, iv, 1 mg/kg, IV 1 mg/kg, 0.25 h, n = 3, read-out: B:P ratio Mean ± SD): 0.05 | concentration at 0.25 h (male, C57BL/6, mouse, brain, iv, 1 mg/kg, IV 1 mg/kg, 0.25 h, n = 3, read-out: Brain Parenchyma Concentration Mean ± SD): 13.3 nM | Kp at 1 h (male, C57BL/6, mouse, brain, iv, 1 mg/kg, IV 1 mg/kg, 1 h, n = 3, read-out: B:P ratio Mean ± SD): 0.076 | concentration at 1 h (male, C57BL/6, mouse, brain, iv, 1 mg/kg, IV 1 mg/kg, 1 h, n = 3, read-out: Brain Parenchyma Concentration Mean ± SD): 8.5 nM | Kp at 4 h (male, C57BL/6, mouse, brain, iv, 1 mg/kg, IV 1 mg/kg, 4 h, n = 3, read-out: B:P ratio Mean ± SD): 0.3 ± 0.15 | concentration at 4 h (male, C57BL/6, mouse, brain, iv, 1 mg/kg, IV 1 mg/kg, 4 h, n = 3, read-out: Brain Parenchyma Concentration Mean ± SD): 3.9 nM | Kp at 0.25 h (male, C57BL/6, mouse, brain, iv, 3 mg/kg, IV 3 mg/kg, 0.25 h, individual mice, read-out: B:P ratio Individual): 0.042 | concentration at 0.25 h (male, C57BL/6, mouse, brain, iv, 3 mg/kg, IV 3 mg/kg, 0.25 h, individual mice, read-out: Brain Parenchyma Concentration Individual): 31.1 nM | Kp at 0.25 h (male, C57BL/6, mouse, brain, iv, 3 mg/kg, IV 3 mg/kg, 0.25 h, n = 3, read-out: B:P ratio Mean ± SD): 0.042 | concentration at 0.25 h (male, C57BL/6, mouse, brain, iv, 3 mg/kg, IV 3 mg/kg, 0.25 h, n = 3, read-out: Brain Parenchyma Concentration Mean ± SD): 29.5 nM | Kp at 1 h (male, C57BL/6, mouse, brain, iv, 3 mg/kg, IV 3 mg/kg, 1 h, individual mice, read-out: B:P ratio Individual): 0.14 | Kp at 1 h (male, C57BL/6, mouse, brain, iv, 3 mg/kg, IV 3 mg/kg, 1 h, n = 3, read-out: B:P ratio Mean ± SD): 0.11 | concentration at 1 h (male, C57BL/6, mouse, brain, iv, 3 mg/kg, IV 3 mg/kg, 1 h, n = 3, read-out: Brain Parenchyma Concentration Mean ± SD): 31.4 nM | Kp at 4 h (male, C57BL/6, mouse, brain, iv, 3 mg/kg, IV 3 mg/kg, 4 h, individual mice, read-out: B:P ratio Individual): 0.32 | Kp at 4 h (male, C57BL/6, mouse, brain, iv, 3 mg/kg, IV 3 mg/kg, 4 h, n = 3, read-out: B:P ratio Mean ± SD): 0.29 | Kp at 4 h (male, C57BL/6, mouse, brain, iv, 3 mg/kg, IV 3 mg/kg, 4 hours after administration, read-out: concentration in the brain as percentage of that present in plasma): ~0.3 | concentration at 4 h (male, C57BL/6, mouse, brain, iv, 3 mg/kg, IV 3 mg/kg, 4 hours after administration, read-out: mean brain concentration): 13.9 nM | concentration at 0.25 h (male, C57BL/6, mouse, plasma, iv, 1 mg/kg, IV 1 mg/kg, 0.25 h, individual mice, read-out: Plasma Concentration Individual): 313 nM | concentration at 0.25 h (male, C57BL/6, mouse, plasma, iv, 1 mg/kg, IV 1 mg/kg, 0.25 h, n = 3, read-out: Plasma Concentration Mean ± SD): 297 nM | concentration at 1 h (male, C57BL/6, mouse, plasma, iv, 1 mg/kg, IV 1 mg/kg, 1 h, individual mice, read-out: Plasma Concentration Individual): 122 nM | concentration at 1 h (male, C57BL/6, mouse, plasma, iv, 1 mg/kg, IV 1 mg/kg, 1 h, n = 3, read-out: Plasma Concentration Mean ± SD): 113 nM | concentration at 4 h (male, C57BL/6, mouse, plasma, iv, 1 mg/kg, IV 1 mg/kg, 4 h, individual mice, read-out: Plasma Concentration Individual): 12.5 nM | concentration at 4 h (male, C57BL/6, mouse, plasma, iv, 1 mg/kg, IV 1 mg/kg, 4 h, n = 3, read-out: Plasma Concentration Mean ± SD): 13.1 nM | concentration at 24 h (male, C57BL/6, mouse, plasma, iv, 1 mg/kg, IV 1 mg/kg, 24 h, individual mice, read-out: Plasma Concentration Individual): 2 nM | concentration at 24 h (male, C57BL/6, mouse, plasma, iv, 1 mg/kg, IV 1 mg/kg, 24 h, n = 3, read-out: Plasma Concentration Mean ± SD): 1.8 nM | half-life (male, C57BL/6, mouse, plasma, iv, 1 mg/kg, plasma, IV administration at 1mg/kg, read-out: Apparent t1/2 (converted)): 7.3 h | concentration at 0.25 h (male, C57BL/6, mouse, plasma, iv, 3 mg/kg, IV 3 mg/kg, 0.25 h, individual mice, read-out: Plasma Concentration Individual): 738 nM | concentration at 0.25 h (male, C57BL/6, mouse, plasma, iv, 3 mg/kg, IV 3 mg/kg, 0.25 h, n = 3, read-out: Plasma Concentration Mean ± SD): 697 nM | concentration at 1 h (male, C57BL/6, mouse, plasma, iv, 3 mg/kg, IV 3 mg/kg, 1 h, individual mice, read-out: Plasma Concentration Individual): 282 nM | concentration at 1 h (male, C57BL/6, mouse, plasma, iv, 3 mg/kg, IV 3 mg/kg, 1 h, n = 3, read-out: Plasma Concentration Mean ± SD): 280 nM | concentration at 4 h (male, C57BL/6, mouse, plasma, iv, 3 mg/kg, IV 3 mg/kg, 4 h, individual mice, read-out: Plasma Concentration Individual): 53 nM | concentration at 4 h (male, C57BL/6, mouse, plasma, iv, 3 mg/kg, IV 3 mg/kg, 4 h, n = 3, read-out: Plasma Concentration Mean ± SD): 47.5 nM | concentration at 4 h (male, C57BL/6, mouse, plasma, iv, 3 mg/kg, IV 3 mg/kg, 4 hours after administration, read-out: mean plasma concentration): 47.5 nM | concentration at 24 h (male, C57BL/6, mouse, plasma, iv, 3 mg/kg, IV 3 mg/kg, 24 h, individual mice, read-out: Plasma Concentration Individual): 5.7 nM | concentration at 24 h (male, C57BL/6, mouse, plasma, iv, 3 mg/kg, IV 3 mg/kg, 24 h, n = 3, read-out: Plasma Concentration Mean ± SD): 6.5 nM | half-life (male, C57BL/6, mouse, plasma, iv, 3 mg/kg, plasma, IV administration at 3mg/kg, read-out: Apparent t1/2 (converted)): 7.4 h | half-life (male, C57BL/6, mouse, plasma, iv, 3 mg/kg, plasma, IV at 1 and 3 mg/kg, each profile, read-out: apparent terminal half-life (converted)): ~7 h | AUC(0-inf) [7]: 1.29 µM·h | clearance [7]: 22 mL/min/kg | Vd [7]: 2.3 L/kg | AUC(0-inf) [8]: 3.14 µM·h | clearance [8]: 27.1 mL/min/kg | Vd [8]: 3.9 L/kg
